Measurements taken from PubChem BioAssay (NCI).
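GI50 is the concentration that inhibits growth by half. TGI is the concentration that stops growth completely.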

Key:
Assay in all cases: NCI tumour cell line growth inhibition, 384-well format
[1] = tested on: MDA-MB-435 melanoma
[2] = tested on: SN12C renal
[3] = tested on: T-47D breast
[4] = tested on: NCI/ADR-RES ovarian
[5] = tested on: SNB-75 CNS
[6] = tested on: UACC-62 melanoma
[7] = tested on: MCF7 breast
[8] = tested on: COLO 205 colon
[9] = tested on: OVCAR-4 ovarian
[10] = tested on: UACC-257 melanoma
[11] = tested on: SF-268 CNS
[12] = tested on: HOP-92 NSCLC
[13] = tested on: BT-549 breast
[14] = tested on: RPMI-8226 leukemia
[15] = tested on: HT29 colon
[16] = tested on: MOLT-4 leukemia
[17] = tested on: CAKI-1 renal
[18] = tested on: TK-10 renal
[19] = tested on: SK-OV-3 ovarian
[20] = tested on: DU-145 prostate
[21] = tested on: A498 renal
[22] = tested on: NCI-H322M lung
[23] = tested on: M14 melanoma
[24] = tested on: SR leukemia
[25] = tested on: OVCAR-8 ovarian
[26] = tested on: MALME-3M melanoma
[27] = tested on: OVCAR-5 ovarian
[28] = tested on: OVCAR-3 ovarian
[29] = tested on: U251 glioblastoma
[30] = tested on: RXF 393 renal
[31] = tested on: ACHN renal
[32] = tested on: NCI-H226 lung
[33] = tested on: HL-60(TB) leukemia
[34] = tested on: EKVX NSCLC
[35] = tested on: HCC-2998 colon
[36] = tested on: NCI-H23 lung
[37] = tested on: SNB-19 CNS
[38] = tested on: SF-539 CNS
[39] = tested on: HOP-62 NSCLC
[40] = tested on: SF-295 CNS
[41] = tested on: NCI-H522 lung
[42] = tested on: NCI-H460 NSCLC
[43] = tested on: 786-0 renal
[44] = tested on: PC-3 prostate
[45] = tested on: SK-MEL-2 melanoma
[46] = tested on: MDA-MB-468 breast
[47] = tested on: SK-MEL-5 melanoma
[48] = tested on: IGROV1 ovarian
[49] = tested on: HCT-15 colon
[50] = tested on: SK-MEL-28 melanoma
[51] = tested on: A549 NSCLC
[52] = tested on: KM12 colon
[53] = tested on: MDA-MB-231 breast
[54] = tested on: HS 578T breast
[55] = tested on: SW-620 colon

## CC(C)n1nc(-c2cc3cc(O)ccc3[nH]2)c2c(N)ncnc21
[1]
  GI50: 0.714 µM
  TGI: 3.3 µM
[2]
  GI50: 0.382 µM
  TGI: 4.19 µM
[3]
  GI50: 0.107 µM
  TGI: 0.48 µM
[4]
  GI50: 0.511 µM
  TGI: 2.2 µM
[5]
  GI50: 0.265 µM
  TGI: 1.56 µM
[6]
  GI50: 0.507 µM
  TGI: 2.08 µM
[7]
  GI50: 0.229 µM
  TGI: 7.96 µM
[8]
  GI50: 0.348 µM
  TGI: 1.18 µM
[9]
  GI50: 0.631 µM
  TGI: 2.82 µM
[10]
  GI50: 1.14 µM
  TGI: 5.39 µM
[11]
  GI50: 1.84 µM
  TGI: 5.93 µM
[12]
  GI50: 0.345 µM
  TGI: 1.62 µM
[13]
  GI50: 0.6 µM
  TGI: 2.31 µM
[14]
  GI50: 0.0916 µM
  TGI: 0.236 µM
[15]
  GI50: 1.18 µM
  TGI: 8.43 µM
[16]
  GI50: 0.329 µM
  TGI: 1.62 µM
[17]
  GI50: 0.328 µM
  TGI: 1.81 µM
[18]
  GI50: 0.327 µM
  TGI: 1.81 µM
[19]
  GI50: 0.208 µM
  TGI: 0.652 µM
[20]
  GI50: 1.34 µM
  TGI: 11 µM
[21]
  GI50: 0.119 µM
  TGI: 0.764 µM
[22]
  GI50: 0.391 µM
  TGI: 3.2 µM
[23]
  GI50: 0.354 µM
  TGI: 2.01 µM
[24]
  GI50: 0.285 µM
  TGI: 0.768 µM
[25]
  GI50: 0.988 µM
  TGI: 5.5 µM
[26]
  GI50: 0.0416 µM
  TGI: 0.271 µM
[27]
  GI50: 0.421 µM
  TGI: 3.58 µM
[28]
  GI50: 0.514 µM
  TGI: 4.94 µM
[29]
  GI50: 1.89 µM
  TGI: 6.01 µM
[30]
  GI50: 0.372 µM
  TGI: 1.61 µM
[31]
  GI50: 0.77 µM
  TGI: 2.64 µM
[32]
  GI50: 0.374 µM
  TGI: 1.29 µM
[33]
  GI50: 1.76 µM
  TGI: 3.99 µM
[34]
  GI50: 0.546 µM
  TGI: 3.05 µM
[35]
  GI50: 1.38 µM
  TGI: 10.5 µM
[36]
  GI50: 0.952 µM
  TGI: 3.22 µM
[37]
  GI50: 2.87 µM
  TGI: 12.1 µM
[38]
  GI50: 1.03 µM
  TGI: 2.94 µM
[39]
  GI50: 0.395 µM
  TGI: 1.95 µM
[40]
  GI50: 1.01 µM
  TGI: 3.8 µM
[41]
  GI50: 0.104 µM
  TGI: 0.701 µM
[42]
  GI50: 0.147 µM
  TGI: 1.4 µM
[43]
  GI50: 1.23 µM
  TGI: 3.94 µM
[44]
  GI50: 0.241 µM
  TGI: 1.25 µM
[45]
  GI50: 0.718 µM
  TGI: 1.8 µM
[46]
  GI50: 0.201 µM
  TGI: 0.79 µM
[47]
  GI50: 0.246 µM
  TGI: 1.06 µM
[48]
  GI50: 0.205 µM
  TGI: 0.642 µM
[49]
  GI50: 0.605 µM
  TGI: 11.9 µM
[50]
  GI50: 0.315 µM
  TGI: 1.02 µM
[51]
  GI50: 0.415 µM
  TGI: 2.37 µM
[52]
  GI50: 0.448 µM
  TGI: 6.43 µM
[53]
  GI50: 0.338 µM
  TGI: 3.41 µM
[54]
  GI50: 0.221 µM
  TGI: 0.808 µM
[55]
  GI50: 4.2 µM
  TGI: 14.6 µM
